# Biological target: PI3Kδ (p110δ/p85α) (Homo sapiens (Human), UniProt O00329)
# Test: PI3Kδ scintillation proximity assay (Example A3)
# Type: biochemical
# Conditions: 20 μM ATP, 20 μM PIP2, 4 nM PI3Kδ; read-out: PI3Kδ SPA IC50
# Method in brief: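 IC50 derived by fitting percent control activity against log inhibitor concentration. Radiolabelled product was measured by scintillation counting on WGA SPA beads after overnight shaking. The kinase reaction used 4 nM p110δ/p85α, 20 μM ATP (with [γ-33P]ATP) and 20 μM PIP2 at pH 6.7 and room temperature, with 0.5% DMSO final.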
# Chain of PI3Kδ (p110δ/p85α) (O00329 whole entry): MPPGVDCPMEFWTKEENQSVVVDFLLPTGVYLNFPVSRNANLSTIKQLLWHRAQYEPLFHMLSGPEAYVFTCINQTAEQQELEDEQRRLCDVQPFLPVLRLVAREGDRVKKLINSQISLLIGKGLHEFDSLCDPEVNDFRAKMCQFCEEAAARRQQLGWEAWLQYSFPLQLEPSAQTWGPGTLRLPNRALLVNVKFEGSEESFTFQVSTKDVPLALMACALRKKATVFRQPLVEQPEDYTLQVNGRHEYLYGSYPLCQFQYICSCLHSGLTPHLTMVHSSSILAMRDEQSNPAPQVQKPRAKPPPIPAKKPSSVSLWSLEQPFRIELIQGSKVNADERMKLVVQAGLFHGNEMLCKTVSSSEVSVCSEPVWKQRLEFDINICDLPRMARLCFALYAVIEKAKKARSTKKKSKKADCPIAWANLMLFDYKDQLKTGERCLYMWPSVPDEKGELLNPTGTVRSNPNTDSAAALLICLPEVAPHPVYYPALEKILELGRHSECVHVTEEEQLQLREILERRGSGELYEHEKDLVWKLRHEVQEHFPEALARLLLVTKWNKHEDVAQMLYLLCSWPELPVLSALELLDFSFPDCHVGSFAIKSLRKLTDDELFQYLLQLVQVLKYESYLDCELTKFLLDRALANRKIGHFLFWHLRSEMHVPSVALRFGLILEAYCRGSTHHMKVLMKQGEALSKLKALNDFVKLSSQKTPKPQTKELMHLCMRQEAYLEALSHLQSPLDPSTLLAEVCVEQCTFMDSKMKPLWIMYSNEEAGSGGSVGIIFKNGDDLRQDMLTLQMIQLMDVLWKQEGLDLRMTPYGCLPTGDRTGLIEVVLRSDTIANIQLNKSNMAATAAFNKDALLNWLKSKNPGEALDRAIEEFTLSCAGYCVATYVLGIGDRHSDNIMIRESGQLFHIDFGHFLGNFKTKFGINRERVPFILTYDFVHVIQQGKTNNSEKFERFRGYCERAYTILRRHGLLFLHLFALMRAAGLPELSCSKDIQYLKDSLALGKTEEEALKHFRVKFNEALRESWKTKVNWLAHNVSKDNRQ
# Chain of PI3Kδ (p110δ/p85α) (P27986 whole entry partner): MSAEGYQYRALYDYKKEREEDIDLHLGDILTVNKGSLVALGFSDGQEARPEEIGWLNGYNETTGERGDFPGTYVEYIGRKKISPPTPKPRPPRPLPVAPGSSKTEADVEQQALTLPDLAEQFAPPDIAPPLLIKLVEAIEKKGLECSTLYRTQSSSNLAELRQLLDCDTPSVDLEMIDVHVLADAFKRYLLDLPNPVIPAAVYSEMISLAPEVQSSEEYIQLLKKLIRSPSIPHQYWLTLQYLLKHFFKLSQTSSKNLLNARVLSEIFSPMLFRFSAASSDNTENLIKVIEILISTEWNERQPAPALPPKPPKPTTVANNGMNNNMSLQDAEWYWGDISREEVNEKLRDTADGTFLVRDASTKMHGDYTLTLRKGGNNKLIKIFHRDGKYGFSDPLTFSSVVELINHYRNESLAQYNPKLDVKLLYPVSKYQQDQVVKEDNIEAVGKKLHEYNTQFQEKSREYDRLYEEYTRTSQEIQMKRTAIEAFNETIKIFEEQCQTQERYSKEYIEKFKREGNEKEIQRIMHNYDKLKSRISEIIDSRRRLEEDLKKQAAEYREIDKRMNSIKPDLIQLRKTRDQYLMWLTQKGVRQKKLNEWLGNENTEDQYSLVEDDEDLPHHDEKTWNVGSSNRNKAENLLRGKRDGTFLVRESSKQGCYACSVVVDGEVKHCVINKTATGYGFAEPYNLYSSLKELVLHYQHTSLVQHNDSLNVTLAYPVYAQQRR
row,Structure (SMILES),IC50
1,"COc1c(C(C)n2nc(C)c3c(N)ncnc32)cc(Cl)c(C)c1-c1cncc(C(=O)N(C)CCO)c1 (single isomer, unassigned) [Example 175, 5-{3-[1-(4-amino-3-methyl-1H-pyrazolo[3,4-d]pyrimidin-1-yl)ethyl]-5-chloro-2-methoxy-6-methylphenyl}-N-(2-hydroxyethyl)-N-methylnicotinamide]",≤ 10 nM
2,"COc1c(C(C)n2nc(C)c3c(N)ncnc32)cc(Cl)c(C)c1-c1cncc(C(=O)N2CCC(O)CC2)c1 (single isomer, unassigned) [Example 176, 1-[(5-{3-[1-(4-amino-3-methyl-1H-pyrazolo[3,4-d]pyrimidin-1-yl)ethyl]-5-chloro-2-methoxy-6-methylphenyl}pyridin-3-yl)carbonyl]piperidin-4-ol]",≤ 10 nM
3,"COc1c(C(C)n2nc(C)c3c(N)ncnc32)cc(Cl)c(C)c1-c1cncc(C(=O)N(C)CCN)c1 (single isomer, unassigned) [Example 178, 5-(3-(1-(4-amino-3-methyl-1H-pyrazolo[3,4-d]pyrimidin-1-yl)ethyl)-5-chloro-2-methoxy-6-methylphenyl)-N-(2-aminoethyl)-N-methylnicotinamide]",≤ 10 nM
4,"COc1c(C(C)n2nc(C)c3c(N)ncnc32)cc(Cl)c(C)c1CCC(=O)N(C)C (single isomer, unassigned) [Example 180, 3-(3-(1-(4-Amino-3-methyl-1H-pyrazolo[3,4-d]pyrimidin-1-yl)ethyl)-5-chloro-2-methoxy-6-methylphenyl)-N,N-dimethylpropanamide]",≤ 10 nM
5,"COc1c(C(C)n2nc(C)c3c(N)ncnc32)cc(Cl)c(C)c1-c1ccc(N(C)C)nc1 (single isomer, unassigned) [Example 185, 1-(1-(5-chloro-3-(6-(dimethylamino)pyridin-3-yl)-2-methoxy-4-methylphenyl)ethyl)-3-methyl-1H-pyrazolo[3,4-d]pyrimidin-4-amine]",≤ 10 nM
6,"COc1c(C(C)n2nc(C)c3c(N)ncnc32)cc(Cl)c(C)c1-c1ccnc(N(C)C)c1 (single isomer, unassigned) [Example 186, 1-(1-(5-chloro-3-(2-(dimethylamino)pyridin-4-yl)-2-methoxy-4-methylphenyl)ethyl)-3-methyl-1H-pyrazolo[3,4-d]pyrimidin-4-amine]",≤ 10 nM
7,"COc1c(C(C)n2nc(C)c3c(N)ncnc32)cc(Cl)c(C)c1-c1ccnc(N2CC(O)C2)c1 (single isomer, unassigned) [Example 187, 1-(4-(3-(1-(4-amino-3-methyl-1H-pyrazolo[3,4-d]pyrimidin-1-yl)ethyl)-5-chloro-2-methoxy-6-methylphenyl)pyridin-2-yl)azetidin-3-ol]",≤ 10 nM
8,"COc1c(C(C)n2nc(C)c3c(N)ncnc32)cc(Cl)c(C)c1C1CC1 (single isomer, unassigned) [Example 192, 1-[1-(5-Chloro-3-cyclopropyl-2-methoxy-4-methylphenyl)ethyl]-3-methyl-1H-pyrazolo[3,4-d]pyrimidin-4-amine]",10 to 50 nM
9,"COc1c(C(C)n2nc(C)c3c(N)ncnc32)cc(Cl)c(C)c1CC1CC1 (single isomer, unassigned) [Example 193, 1-{1-[5-Chloro-3-(cyclopropylmethyl)-2-methoxy-4-methylphenyl]ethyl}-3-methyl-1H-pyrazolo[3,4-d]pyrimidin-4-amine]",50 to 200 nM
10,"CCOc1c(C(C)n2nc(C)c3c(N)ncnc32)cc(Cl)c(C)c1-c1ccc(C(=O)NC)nc1 (single isomer, unassigned) [Example 199, 5-(3-(1-(4-amino-3-methyl-1H-pyrazolo[3,4-d]pyrimidin-1-yl)ethyl)-5-chloro-2-ethoxy-6-methylphenyl)-N-methylpicolinamide]",≤ 10 nM
11,"CCOc1c(C(C)n2nc(C)c3c(N)ncnc32)cc(Cl)c(C)c1-c1ccnc(C(=O)N(C)CCO)c1 (single isomer, unassigned) [Example 202, 4-(3-(1-(4-amino-3-methyl-1H-pyrazolo[3,4-d]pyrimidin-1-yl)ethyl)-5-chloro-2-ethoxy-6-methylphenyl)-N-(2-hydroxyethyl)-N-methylpicolinamide]",≤ 10 nM
12,"CCOc1c(C(C)n2nc(C)c3c(N)ncnc32)cc(Cl)c(C)c1-c1cnn(CC(=O)NC)c1 (single isomer, unassigned) [Example 204, 2-(4-(3-(1-(4-amino-3-methyl-1H-pyrazolo[3,4-d]pyrimidin-1-yl)ethyl)-5-chloro-2-ethoxy-6-methylphenyl)-1H-pyrazol-1-yl)-N-methylacetamide]",≤ 10 nM
13,"CCOc1c(C(C)n2nc(C)c3c(N)ncnc32)cc(Cl)c(C)c1-c1cnn(CC(=O)N(C)C)c1 (single isomer, unassigned) [Example 205, 2-(4-(3-(1-(4-amino-3-methyl-1H-pyrazolo[3,4-d]pyrimidin-1-yl)ethyl)-5-chloro-2-ethoxy-6-methylphenyl)-1H-pyrazol-1-yl)-N,N-dimethylacetamide]",≤ 10 nM
14,"COc1c(C(C)n2nc(C)c3c(N)ncnc32)cc(Cl)c(C)c1-c1cnn(CC(=O)N(C)C)c1 (single isomer, unassigned) [Example 206, 2-(4-(3-(1-(4-amino-3-methyl-1H-pyrazolo[3,4-d]pyrimidin-1-yl)ethyl)-5-chloro-2-methoxy-6-methylphenyl)-1H-pyrazol-1-yl)-N,N-dimethylacetamide]",≤ 10 nM
15,"COc1c(C(C)n2nc(C)c3c(N)ncnc32)cc(C#N)c(C)c1-c1cnn(C)c1 (single isomer, unassigned) [Example 209, 5-[1-(4-Amino-3-methyl-1H-pyrazolo[3,4-d]pyrimidin-1-yl)ethyl]-4-methoxy-2-methyl-3-(1-methyl-1H-pyrazol-4-yl)benzonitrile]",10 to 50 nM
16,"CCOc1c(C(C)n2nc(C)c3c(N)ncnc32)cc(C#N)c(C)c1-c1cnn(C)c1 (single isomer, unassigned) [Example 210, 5-[1-(4-Amino-3-methyl-1H-pyrazolo[3,4-d]pyrimidin-1-yl)ethyl]-4-ethoxy-2-methyl-3-(1-methyl-1H-pyrazol-4-yl)benzonitrile]",≤ 10 nM
17,"CCOc1c(C(C)n2nc(C)c3c(N)ncnc32)cc(Cl)c(C#N)c1C1CN(CC(C)C)C1 (single isomer, unassigned) [Example 216, 4-[1-(4-Amino-3-methyl-1H-pyrazolo[3,4-d]pyrimidin-1-yl)ethyl]-6-chloro-3-ethoxy-2-(1-isobutylazetidin-3-yl)benzonitrile]",≤ 10 nM
18,"CCOc1c(C(C)n2nc(C)c3c(N)ncnc32)cc(Cl)c(C#N)c1C1CN(C2CCC2)C1 (single isomer, unassigned) [Example 218, 4-[1-(4-Amino-3-methyl-1H-pyrazolo[3,4-d]pyrimidin-1-yl)ethyl]-6-chloro-2-(1-cyclobutylazetidin-3-yl)-3-ethoxybenzonitrile]",≤ 10 nM
19,"CCOc1c(C(C)n2nc(C)c3c(N)ncnc32)cc(Cl)c(C#N)c1C1CN(CCO)C1 (single isomer, unassigned) [Example 219, 4-[1-(4-Amino-3-methyl-1H-pyrazolo[3,4-d]pyrimidin-1-yl)ethyl]-6-chloro-3-ethoxy-2-[1-(2-hydroxyethyl)azetidin-3-yl]benzonitrile]",≤ 10 nM
20,"CCOc1c(C(C)n2nc(C)c3c(N)ncnc32)cc(Cl)c(C#N)c1C1CN(C(COC)COC)C1 (single isomer, unassigned) [Example 226, 4-[1-(4-Amino-3-methyl-1H-pyrazolo[3,4-d]pyrimidin-1-yl)ethyl]-6-chloro-3-ethoxy-2-{1-[2-methoxy-1-(methoxymethyl)ethyl]azetidin-3-yl}benzonitrile]",≤ 10 nM
21,"CCOc1c(C(C)n2nc(C)c3c(N)ncnc32)cc(Cl)c(C#N)c1C1CN(C2CCOC2)C1 (single isomer, unassigned) [Example 227, 4-[1-(4-Amino-3-methyl-1H-pyrazolo[3,4-d]pyrimidin-1-yl)ethyl]-6-chloro-3-ethoxy-2-[1-(tetrahydrofuran-3-yl)azetidin-3-yl]benzonitrile]",≤ 10 nM
22,"CCOc1c(C(C)n2nc(C)c3c(N)ncnc32)cc(Cl)c(C#N)c1C1CN(CC2CCOC2)C1 (single isomer, unassigned) [Example 230, 4-[1-(4-Amino-3-methyl-1H-pyrazolo[3,4-d]pyrimidin-1-yl)ethyl]-6-chloro-3-ethoxy-2-[1-(tetrahydrofuran-3-ylmethyl)azetidin-3-yl]benzonitrile]",≤ 10 nM
23,"CCOc1c(C(C)n2nc(C)c3c(N)ncnc32)cc(Cl)c(C#N)c1C1CN(CC2CCOCC2)C1 (single isomer, unassigned) [Example 232, 4-[1-(4-Amino-3-methyl-1H-pyrazolo[3,4-d]pyrimidin-1-yl)ethyl]-6-chloro-3-ethoxy-2-[1-(tetrahydro-2H-pyran-4-ylmethyl)azetidin-3-yl]benzonitrile]",≤ 10 nM
24,"CCOc1c(C(C)n2nc(C)c3c(N)ncnc32)cc(Cl)c(C#N)c1C1CN(CC(F)(F)F)C1 (single isomer, unassigned) [Example 233, 4-[1-(4-Amino-3-methyl-1H-pyrazolo[3,4-d]pyrimidin-1-yl)ethyl]-6-chloro-3-ethoxy-2-[1-(2,2,2-trifluoroethyl)azetidin-3-yl]benzonitrile]",≤ 10 nM
25,"CCOc1c(C(C)n2nc(C)c3c(N)ncnc32)cc(Cl)c(C#N)c1C1CN(C(C)(C)C(=O)NC)C1 (single isomer, unassigned) [Example 240, 2-(3-{3-[1-(4-Amino-3-methyl-1H-pyrazolo[3,4-d]pyrimidin-1-yl)ethyl]-5-chloro-6-cyano-2-ethoxyphenyl}azetidin-1-yl)-N,2-dimethylpropanamide]",≤ 10 nM
26,"CCOc1c(C(C)n2nc(C)c3c(N)ncnc32)cc(Cl)c(C#N)c1C1CN(C(C)=O)C1 (single isomer, unassigned) [Example 242, 2-(1-Acetylazetidin-3-yl)-4-[1-(4-amino-3-methyl-1H-pyrazolo[3,4-d]pyrimidin-1-yl)ethyl]-6-chloro-3-ethoxybenzonitrile]",≤ 10 nM

# From US9707233B2, “Heterocyclylamines as PI3K inhibitors” (Incyte Corporation, priority 2011, dated 2017)
